From patent US11306079B2, “3-(5-amino-pyrazin-2-yl)-benzenesulfonamide derivatives and related compounds as PI3K-gamma kinase inhibitors” (Incyte Corporation, priority 2017, dated 2022)
Structures can show the parent of a compound that is named as a salt.

Key:
[1] = target: PI3Kγ (p110γ) Recombinant Human Protein (Homo sapiens (Human), UniProt P48736); assay: PI3K-γ Scintillation Proximity Assay; type: biochemical; conditions: 20 μM PIP2, 2 μM ATP, 13 nM PI3Kγ, 120 min, room temperature
From the text: Example B. PI3K-γ Scintillation Proximity Assay
(§1) [γ-^33P]ATP (10 mCi/mL) and Wheat Germ Agglutinin (WGA) YSi SPA Scintillation Beads was purchased from Perkin-Elmer (Waltham, Mass.). Lipid kinase substrate, D-myo-Phosphatidylinositol 4,5-bisphosphate (PtdIns(4,5)P2)D (+)-sn-1,2-di-O-octanoylglyceryl, 3-O-phospho linked (PIP2), CAS 204858-53-7, was purchased from Echelon Biosciences (Salt Lake City, Utah). PI3Kγ (p110γ) Recombinant Human Protein was purchased from Life technology (Grand island, NY), ATP, MgCl2, DTT, EDTA, MOPS and CHAPS were purchased from Sigma-Aldrich (St. Louis, Mo.).
(§2) The kinase reaction was conducted in polystyrene 384-well Greiner Bio-one white plate from Thermo Fisher Scientific in a final volume of 25 μL. Inhibitors were first diluted serially in DMSO and added to the plate wells before the addition of other reaction components. The final concentration of DMSO in the assay was 2%. The PI3Kγ assay was carried out at room temperature in 20 mM MOPS, pH 6.7, 10 mM MgCl2, 5 mM DTT and CHAPS 0.03%. Reactions were initiated by the addition of ATP, the final reaction mixture consisted of 20 μM PIP2, 2 μM ATP, 0.5 μCi [γ-^33P] ATP, 13 nM PI3Kγ. Reactions were incubated for 120 min and terminated by the addition of 40 μL SPA beads suspended in quench buffer: 163 mM potassium phosphate pH 7.8, 20% glycerol, 25 mM EDTA. The final concentration of SPA beads is 1.0 mg/mL. After the plate sealing, plates were shaken overnight at room temperature and centrifuged at 1500 rpm for 10 min, the radioactivity of the product was determined by scintillation counting on Topcount (Perkin-Elmer). IC50 determination was performed by fitting the curve of percent of the solvent control activity versus the log of the inhibitor concentration using the GraphPad Prism 6.0 software.

[2] = target: PI3Kδ (p110δ/p85α) Recombinant Human Protein (Homo sapiens (Human), UniProt O00329); assay: PI3Kδ Scintillation Proximity Assay; type: biochemical; conditions: 20 μM PIP2, 2 μM ATP, 3.4 nM PI3Kδ, 120 min, room temperature
Sequence of PI3Kδ (p110δ/p85α) Recombinant Human Protein (O00329 whole entry): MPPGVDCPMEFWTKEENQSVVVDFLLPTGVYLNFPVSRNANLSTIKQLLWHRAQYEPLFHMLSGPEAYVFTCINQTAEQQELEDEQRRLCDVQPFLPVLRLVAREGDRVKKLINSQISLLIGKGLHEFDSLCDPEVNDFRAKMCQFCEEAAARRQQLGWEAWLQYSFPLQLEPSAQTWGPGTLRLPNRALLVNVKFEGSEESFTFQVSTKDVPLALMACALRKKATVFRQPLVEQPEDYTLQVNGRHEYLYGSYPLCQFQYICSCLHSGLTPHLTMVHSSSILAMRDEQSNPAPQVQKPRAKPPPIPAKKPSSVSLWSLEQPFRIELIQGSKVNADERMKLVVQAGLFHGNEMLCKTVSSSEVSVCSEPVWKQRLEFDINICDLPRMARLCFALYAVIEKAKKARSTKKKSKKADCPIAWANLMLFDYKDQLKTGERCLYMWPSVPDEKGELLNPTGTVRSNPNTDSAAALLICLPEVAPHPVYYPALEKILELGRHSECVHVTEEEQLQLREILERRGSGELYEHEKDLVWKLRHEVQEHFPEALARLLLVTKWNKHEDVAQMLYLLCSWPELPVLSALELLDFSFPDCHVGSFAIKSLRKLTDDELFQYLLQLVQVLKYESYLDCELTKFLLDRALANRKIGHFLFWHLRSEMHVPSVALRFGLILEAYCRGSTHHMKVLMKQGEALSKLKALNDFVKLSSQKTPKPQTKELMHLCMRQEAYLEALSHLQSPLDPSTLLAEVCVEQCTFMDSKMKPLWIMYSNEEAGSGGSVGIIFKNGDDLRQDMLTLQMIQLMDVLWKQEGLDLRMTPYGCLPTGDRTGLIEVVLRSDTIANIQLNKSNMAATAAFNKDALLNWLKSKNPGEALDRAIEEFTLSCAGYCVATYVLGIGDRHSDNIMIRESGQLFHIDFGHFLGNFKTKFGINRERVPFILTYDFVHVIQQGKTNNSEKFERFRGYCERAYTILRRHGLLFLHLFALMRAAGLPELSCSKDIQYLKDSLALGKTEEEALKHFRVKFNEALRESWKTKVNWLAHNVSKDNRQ
Sequence of PI3Kδ (p110δ/p85α) Recombinant Human Protein (P27986 whole entry partner): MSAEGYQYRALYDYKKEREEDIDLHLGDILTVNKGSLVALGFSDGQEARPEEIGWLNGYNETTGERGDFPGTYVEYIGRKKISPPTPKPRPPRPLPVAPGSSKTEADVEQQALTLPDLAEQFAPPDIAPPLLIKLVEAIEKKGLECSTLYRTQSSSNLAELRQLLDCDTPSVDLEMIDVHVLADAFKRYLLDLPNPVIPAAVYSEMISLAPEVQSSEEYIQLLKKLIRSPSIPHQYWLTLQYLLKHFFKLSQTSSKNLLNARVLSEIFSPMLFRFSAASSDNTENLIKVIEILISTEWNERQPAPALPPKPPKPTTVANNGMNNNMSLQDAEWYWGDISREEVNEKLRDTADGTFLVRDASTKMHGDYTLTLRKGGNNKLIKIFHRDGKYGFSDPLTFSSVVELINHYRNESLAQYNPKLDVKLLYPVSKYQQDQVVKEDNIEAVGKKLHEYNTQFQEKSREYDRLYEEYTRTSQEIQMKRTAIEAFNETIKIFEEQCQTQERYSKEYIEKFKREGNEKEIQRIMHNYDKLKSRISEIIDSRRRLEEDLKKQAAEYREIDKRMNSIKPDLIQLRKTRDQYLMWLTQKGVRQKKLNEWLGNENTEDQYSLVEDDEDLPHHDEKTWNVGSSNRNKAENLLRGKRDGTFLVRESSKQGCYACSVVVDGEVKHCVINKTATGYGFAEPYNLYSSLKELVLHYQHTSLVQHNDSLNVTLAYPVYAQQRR
From the text: Example C. PI3Kδ Scintillation Proximity Assay
as §1, with “PI3Kδ (p110δ/p85α)” for “PI3Kγ (p110γ)”, “Eurofins (St Charles, Mo.).” for “Life technology (Grand island, NY),”
as §2, with “PI3Kδ” for “PI3Kγ”, “3.4” for “13”, “PI3Kδ.” for “PI3Kγ.”

[3] = system: Phosphorylated Ribosomal Protein S6 (RPS6) in THP-1 cells; assay: THP-1 RPS6 ELISA Assay; type: cell-based; conditions: Homo sapiens; serum starved THP-1 cells, 2 hours with compound, 10 nM MCP-1 for 15 minutes, Phospho-RPS6 ELISA; read-out: PI3Kγ_THP1_RPS6_ELISA IC50
Protocol: Example A. THP-1 RPS6 ELISA Assay
To measure the Phosphorylated Ribosomal Protein S6 (RPS6) in cell lysates, THP-1 cells (Human Acute Monocytic Leukemia) are purchased from ATCC (Manassas, Va.) and maintained in RPMI with 10% FBS (Gibco/Life Technologies, Carlsbad, Calif.). For the assay, THP-1 cells are serum starved overnight in RPMI, then plated in RPMI (2×10^5 cells/well in 90 μL) into 96-well flat-bottom tissue culture treated plates (Corning, Corning, N.Y.), in the presence or absence of a concentration range of test compounds. Covered plates are incubated for 2 hours at 37° C., 5% CO2 then treated with or without 10 nM MCP-1 (MYBioSource, San Diego, Calif.) for 15 minutes at 37° C., 5% CO2. Plates are centrifuged at 1600 RPM and supernatants are removed. Cells are lysed in Lysis Buffer (Cell Signaling, Danvers, Mass.) with Protease Inhibitor (Calbiochem/EMD, Germany), PMSF (Sigma, St Louis Mo.), HALTS (Thermo Fisher, Rockford, Ill.) for 30 min on wet ice. Cell lysates are frozen at −80° C. before testing. The lysates are tested in the Human/Mouse/Rat Phospho-RPS6 ELISA (R&D Systems, Inc. Minn, Minn.). The plate is measured using a microplate reader (SpectraMax M5—Molecular Devices, LLC Sunnyvale, Calif.) set to 450 nm with a wavelength correction of 540. IC50 determination is performed by fitting the curve of inhibitor percent inhibition versus the log of the inhibitor concentration using the GraphPad Prism 5.0 software.

Sequence of PI3Kγ (p110γ) Recombinant Human Protein (P48736 whole entry): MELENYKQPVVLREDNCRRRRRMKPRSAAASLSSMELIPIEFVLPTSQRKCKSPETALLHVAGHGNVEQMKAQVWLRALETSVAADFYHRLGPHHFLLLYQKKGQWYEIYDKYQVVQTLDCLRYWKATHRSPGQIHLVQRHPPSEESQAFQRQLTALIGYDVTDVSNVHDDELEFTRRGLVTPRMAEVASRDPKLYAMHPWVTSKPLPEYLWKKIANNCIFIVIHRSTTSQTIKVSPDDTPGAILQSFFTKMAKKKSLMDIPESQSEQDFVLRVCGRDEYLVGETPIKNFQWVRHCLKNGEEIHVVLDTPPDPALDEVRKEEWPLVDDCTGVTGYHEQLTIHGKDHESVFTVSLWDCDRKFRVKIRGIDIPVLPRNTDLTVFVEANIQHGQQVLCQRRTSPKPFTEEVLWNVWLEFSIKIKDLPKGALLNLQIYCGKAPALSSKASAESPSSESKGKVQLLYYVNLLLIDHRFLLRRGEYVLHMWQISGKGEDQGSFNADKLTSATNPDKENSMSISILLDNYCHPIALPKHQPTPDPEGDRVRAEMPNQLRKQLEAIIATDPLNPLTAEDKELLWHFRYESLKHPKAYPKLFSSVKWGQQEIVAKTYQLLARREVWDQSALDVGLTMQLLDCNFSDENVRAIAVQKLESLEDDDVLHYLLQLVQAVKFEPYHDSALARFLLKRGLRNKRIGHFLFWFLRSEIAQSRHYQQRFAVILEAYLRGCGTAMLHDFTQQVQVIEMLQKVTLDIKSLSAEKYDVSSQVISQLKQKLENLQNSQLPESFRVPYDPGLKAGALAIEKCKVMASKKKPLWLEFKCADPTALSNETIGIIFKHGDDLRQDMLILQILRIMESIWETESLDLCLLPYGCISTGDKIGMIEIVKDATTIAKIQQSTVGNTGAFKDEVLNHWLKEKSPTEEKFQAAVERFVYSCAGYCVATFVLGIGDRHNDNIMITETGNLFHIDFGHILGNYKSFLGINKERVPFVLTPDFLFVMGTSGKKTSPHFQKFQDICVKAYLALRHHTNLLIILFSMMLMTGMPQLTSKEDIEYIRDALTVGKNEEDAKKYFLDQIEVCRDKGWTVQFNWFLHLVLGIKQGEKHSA

| Compound | IC50 [1] | IC50 [2] | IC50 [3] |
| --- | --- | --- | --- |
| Cc1ncc(-c2nc(-c3cc(S(=O)(=O)NC45CC(C#N)(C4)C5)ccc3C)cnc2N)s1 [Example 1, 3-(5-Amino-6-(2-methylthiazol-5-yl)pyrazin-2-yl)-N-(3-cyanobicyclo[1.1.1]pentan-1-yl)-4-methylbenzenesulfonamide Trifluoroacetate Salt] | ≤ 100 nM | ≤ 100 nM | ≤ 100 nM |
| Cc1ncc(-c2nc(-c3cc(S(=O)(=O)NC45CCC(C#N)(C4)C5)ccc3C)cnc2N)s1 [Example 2, 3-(5-Amino-6-(2-methylthiazol-5-yl)pyrazin-2-yl)-N-(4-cyanobicyclo[2.1.1]hexan-1-yl)-4-methylbenzenesulfonamide trifluoroacetate salt] | ≤ 100 nM | ≤ 100 nM | ≤ 100 nM |
| Cc1ncc(-c2nc(-c3cc(S(=O)(=O)NC45CC(CO)(C4)C5)ccc3C)cnc2N)s1 [Example 3, 3-(5-Amino-6-(2-methylthiazol-5-yl)pyrazin-2-yl)-N-(3-(hydroxymethyl)bicyclo[1.1.1]pentan-1-yl)-4-methylbenzenesulfonamide trifluoroacetate salt] | ≤ 100 nM | ≤ 100 nM | ≤ 100 nM |
| Cc1ncc(-c2nc(-c3cc(S(=O)(=O)NC45COC(CO)(C4)C5)ccc3C)cnc2N)s1 [Example 4, 3-(5-Amino-6-(2-methylthiazol-5-yl)pyrazin-2-yl)-N-(1-(hydroxymethyl)-2-oxabicyclo[2.1.1]hexan-4-yl)-4-methylbenzenesulfonamide trifluoroacetate salt] | ≤ 100 nM | ≤ 100 nM | ≤ 100 nM |
| Cc1ccc(S(=O)(=O)NC23CCC(CO)(CC2)OC3)cc1-c1cnc(N)c(-c2ccncc2C#N)n1 [Example 22, 3-(5-Amino-6-(3-cyanopyridin-4-yl)pyrazin-2-yl)-N-(1-(hydroxymethyl)-2-oxabicyclo[2.2.2]octan-4-yl)-4-methylbenzenesulfonamide trifluoroacetate salt] | < 2000 nM | ≥ 2000 nM | – |
| CNC(=O)C12CC(NS(=O)(=O)c3ccc(C)c(-c4cnc(N)c(-n5cncn5)n4)c3)(C1)C2 [Example 32, 3-(3-(5-Amino-6-(1H-1,2,4-triazol-1-yl)pyrazin-2-yl)-4-methylphenylsulfonamido)-N-methylbicyclo[1.1.1]pentane-1-carboxamide trifluoroacetate Salt] | ≤ 100 nM | < 2000 nM | – |
| Cc1ccc(S(=O)(=O)NC23CC(C(=O)N(C)C)(C2)C3)cc1-c1cnc(N)c(-n2cncn2)n1 [Example 33, 3-(3-(5-Amino-6-(1H-1,2,4-triazol-1-yl)pyrazin-2-yl)-4-methylphenylsulfonamido)-N,N-dimethylbicyclo[1.1.1]pentane-1-carboxamide trifluoroacetate salt] | ≤ 100 nM | ≤ 500 nM | – |
| Cc1ccc(S(=O)(=O)NC23CC(C#N)(C2)C3)cc1-c1cnc(N)c(-c2nn[nH]n2)n1 [Example 36, 3-(5-Amino-6-(2H-tetrazol-5-yl)pyrazin-2-yl)-N-(3-cyanobicyclo[1.1.1]pentan-1-yl)-4-methylbenzenesulfonamide Trifluoroacetate Salt] | ≤ 100 nM | ≥ 2000 nM | – |
| Cc1ccc(S(=O)(=O)NC23CCC(C#N)(C2)C3)cc1-c1cnc(N)c(-c2nn[nH]n2)n1 [Example 37, 3-(5-Amino-6-(2H-tetrazol-5-yl)pyrazin-2-yl)-N-(4-cyanobicyclo[2.1.1]hexan-1-yl)-4-methylbenzenesulfonamide Trifluoroacetate Salt] | ≤ 100 nM | ≥ 2000 nM | – |
| [2H]C([2H])([2H])c1ccc(S(=O)(=O)NC23CC(CO)(C2)C3)cc1-c1cnc(N)c(-n2nccn2)n1 [Example 51, 3-(5-Amino-6-(2H-1,2,3-triazol-2-yl)pyrazin-2-yl)-N-(3-(hydroxymethyl)bicyclo[1.1.1]pentan-1-yl)-4-(methyl-d3)benzenesulfonamide Trifluoroacetate Salt] | ≤ 100 nM | < 2000 nM | – |
| [2H]C([2H])([2H])c1ccc(S(=O)(=O)NC23CNC(C2)C3)cc1-c1cnc(N)c(-n2nccn2)n1 [Example 52, 3-(5-Amino-6-(2H-1,2,3-triazol-2-yl)pyrazin-2-yl)-N-(2-azabicyclo[2.1.1]hexan-4-yl)-4-(methyl-d3)benzenesulfonamide Trifluoroacetate Salt] | ≤ 500 nM | ≤ 500 nM | – |
| O=C(O)C(F)(F)F.[2H]C([2H])([2H])c1ccc(S(=O)(=O)NC23CNC(C2)C3)cc1-c1cnc(N)c(-n2cncn2)n1 [Example 53, 3-(5-Amino-6-(1H-1,2,4-triazol-1-yl)pyrazin-2-yl)-N-(2-azabicyclo[2.1.1]hexan-4-yl)-4-(methyl-d3)benzenesulfonamide trifluoroacetate salt] | ≤ 100 nM | ≤ 500 nM | – |
| [2H]C([2H])([2H])c1ccc(S(=O)(=O)NC23CC(C2)N(C(C)C)C3)cc1-c1cnc(N)c(-n2cncn2)n1 [Example 60, 3-(5-Amino-6-(1H-1,2,4-triazol-1-yl)pyrazin-2-yl)-N-(2-isopropyl-2-azabicyclo[2.1.1]hexan-4-yl)-4-(methyl-d3)benzenesulfonamide Trifluoroacetate Salt] | ≤ 100 nM | ≤ 500 nM | – |
| [2H]C([2H])([2H])c1ccc(S(=O)(=O)NC23CCC(C#N)(C2)C3)cc1-c1cnc(N)c(-c2cncnc2)n1 [Example 64, 3-(5-Amino-6-(pyrimidin-5-yl)pyrazin-2-yl)-N-(4-cyanobicyclo[2.1.1]hexan-1-yl)-4-(methyl-d3)benzenesulfonamide trifluoroacetate salt] | – | – | ≤ 100 nM |
| Cc1ccc(S(=O)(=O)NC23COC(CO)(C2)C3)cc1-c1cnc(N)c(-c2cn(C)nc2C)c1 [Example 84, 3-(6-amino-5-(1,3-dimethyl-1H-pyrazol-4-yl)pyridin-3-yl)-N-(1-(hydroxymethyl)-2-oxabicyclo[2.1.1]hexan-4-yl)-4-methylbenzenesulfonamide] | ≤ 500 nM | ≤ 500 nM | – |
